Data: patent publication US12024500B2, “Five-membered ring-substituted pyridazinol compounds and derivatives, preparation methods, herbicidal compositions and applications thereof” (Qingdao Kingagroot Chemical Compound Co., Ltd., priority 2018, dated 2024)

Columns and labels:
Assay type in all cases: in vivo
Amaranthus retroflexus = assay: Post-emergence weed control test (greenhouse pot, spray); settings: 3 weeks after spraying
Description: (§1) The activity level standard of harmful plant destruction (i.e. growth inhibition rate) is as follows: • Level 10: completely dead; • Level 9: above 90% growth inhibition rate; • Level 8: above 80% growth inhibition rate; • Level 7: above 70% growth inhibition rate; • Level 6: above 60% growth inhibition rate; • Level 5: above 50% growth inhibition rate; • Level 4: above 40% growth inhibition rate; • Level 3: above 30% growth inhibition rate; • Level 2: above 20% growth inhibition rate; • Level 1: below 20% growth inhibition rate; • Level 0: no effect.
(§2) The above described growth inhibition rates are fresh weight inhibition rates.
(§3) Experiment of post-emergence test: monocotyledonous and dicotyledonous weed seeds as well as main crop seeds (i.e., wheat, corn, rice, soybean, cotton, oilseed rape, millet and sorghum) were put into a plastic pot loaded with soil, then covered with 0.5-2 cm of soil, and the seeds were allowed to grow in good greenhouse environment. The test plants were treated at 4-5 leaf stage 2-3 weeks after sowing. The test compounds of the invention were dissolved in acetone respectively, then added with Tween-80 and diluted by a certain amount of water to give solutions with certain concentrations. The solution was sprayed to the plants with a sprayer. The plants were cultured for 3 weeks in the greenhouse.

Setaria viridis = assay: as above; settings: 3 weeks after spraying; for weed control effect (activity level), Setaria viridis, comparison experiment: 300 g/ha; for inhibition at 2000 g/ha: Setaria viridis, 504 h, read-out: weed control effect (activity level, fresh weight growth inhibition rate), Setaria viridis
Description: as §1, §2, §3

Chenopodiaceae = assay: as above; settings: 3 weeks after spraying
Description: as §1, §2, §3

Rorippa indica = assay: as above; settings: 3 weeks after spraying; for weed control effect (activity level), Rorippa indica, comparison experiment: 300 g/ha
Description: as §1, §2, §3

Veronica polita = assay: as above; settings: 3 weeks after spraying; for weed control effect (activity level), Veronica polita, comparison experiment: 300 g/ha
Description: as §1, §2, §3

Digitaria sanguinalis = assay: Post-emergence weed control test (comparative experiment); settings: 300 g/ha, 3 weeks after spraying
Description: as §1, §2, §3

Echinochloa crus-galli = assay: as above; settings: 300 g/ha, 3 weeks after spraying
Description: as §1, §2, §3

[1] = Amaranthus retroflexus, 504 h, read-out: weed control effect (activity level, fresh weight growth inhibition rate), Amaranthus retroflexus
[2] = 504 h, read-out: weed control effect (activity level, fresh weight growth inhibition rate), Chenopodiaceae
[3] = Veronica polita, 504 h, read-out: weed control effect (activity level, fresh weight growth inhibition rate), Veronica polita

| SMILES | weed control effect (activity level), Setaria viridis, comparison experiment (Setaria viridis) | weed control effect (activity level), Rorippa indica, comparison experiment (Rorippa indica) | weed control effect (activity level), Veronica polita, comparison experiment (Veronica polita) | weed control effect (activity level), Digitaria sanguinalis, comparison experiment (Digitaria sanguinalis) | weed control effect (activity level), Echinochloa crus-galli, comparison experiment (Echinochloa crus-galli) | inhibition at 2000 g/ha (Amaranthus retroflexus; [1]) | inhibition at 2000 g/ha (Setaria viridis) | inhibition at 2000 g/ha (Chenopodiaceae; [2]) | inhibition at 2000 g/ha (Veronica polita; [3]) | also measured |
| --- | --- | --- | --- | --- | --- | --- | --- | --- | --- | --- |
| Cc1cc(-c2nnc(Cl)cc2O)n(C)n1 [Compound 1] | 10 | 10 | 10 | 7 (Level 7: above 70% growth inhibition rate) | 8 (Level 8: above 80% growth inhibition rate) |  |  |  |  | inhibition at 3000 g/ha (Amaranthus retroflexus; Amaranthus retroflexus, 504 h, 3000 g/ha, read-out: weed control effect (activity level, fresh weight growth inhibition rate), Amaranthus retroflexus): 100%; inhibition at 3000 g/ha (Chenopodiaceae; 504 h, 3000 g/ha, read-out: weed control effect (activity level, fresh weight growth inhibition rate), Chenopodiaceae): 100%; inhibition at 3000 g/ha (Rorippa indica; Rorippa indica, 504 h, 3000 g/ha, read-out: weed control effect (activity level, fresh weight growth inhibition rate), Rorippa indica): 100%; inhibition at 3000 g/ha (Veronica polita; Veronica polita, 504 h, 3000 g/ha, read-out: weed control effect (activity level, fresh weight growth inhibition rate), Veronica polita): 100% |
| Cc1cc(-c2nnc(Cl)cc2OC(=S)Oc2cccs2)n(C)n1 [Compound 1-5] |  |  |  |  |  | 100% | 100% | 100% | 100% |  |
| Cc1cc(-c2nnc(Cl)cc2OC(=O)N2CCOCC2)n(C)n1 [Compound 1-9] |  |  |  |  |  | 100% | 100% | 100% | 100% |  |
| CCCCCOC(=O)Oc1cc(Cl)nnc1-c1cc(C)nn1C [Compound 1-1] | 10 | 10 | 10 | 8 (Level 8: above 80% growth inhibition rate) | 8 (Level 8: above 80% growth inhibition rate) | 100% | 100% | 100% | 100% |  |
| CCSC(=O)Oc1cc(Cl)nnc1-c1cc(C)nn1C [Compound 1-8] |  |  |  |  |  | 100% | 100% | 100% | 100% |  |
| Cn1nccc1-c1nnc(Cl)cc1O [Compound 29] | 10 | 10 | 9 (Level 9: above 90% growth inhibition rate) | 6 (Level 6: above 60% growth inhibition rate) | 8 (Level 8: above 80% growth inhibition rate) |  |  |  |  | weed control effect (activity level, fresh weight growth inhibition rate), Amaranthus retroflexus (Amaranthus retroflexus; 3000 g/ha): 10 (Level 10: completely dead); weed control effect (activity level, fresh weight growth inhibition rate), Chenopodiaceae (Chenopodiaceae; 3000 g/ha): 10 (Level 10: completely dead); weed control effect (activity level, fresh weight growth inhibition rate), Rorippa indica (Rorippa indica; 3000 g/ha): 10 (Level 10: completely dead); weed control effect (activity level, fresh weight growth inhibition rate), Veronica polita (Veronica polita; 3000 g/ha): 10 (Level 10: completely dead) |
| CCCCCCCCSC(=O)Oc1cc(Cl)nnc1-c1ccccc1 [Control Compound B, reference compound] | 2 (Level 2: above 20% growth inhibition rate) | 3 (Level 3: above 30% growth inhibition rate) | 5 (Level 5: above 50% growth inhibition rate) | 0 | 0 |  |  |  |  |  |
| Oc1cc(Cl)nnc1-c1ccccc1 [Control Compound A, reference compound] | 2 (Level 2: above 20% growth inhibition rate) | 2 (Level 2: above 20% growth inhibition rate) | 5 (Level 5: above 50% growth inhibition rate) | 0 | 0 |  |  |  |  |  |
| Cc1cc(-c2nnc(Cl)cc2OC(C)OC(=O)OC(C)C)n(C)n1 (stereo not shown) [Compound 1-6] |  |  |  |  |  | 100% | 100% | 100% | 100% |  |
| Cn1nc([N+](=O)[O-])cc1-c1nnc(Cl)cc1O [Compound 72] |  |  |  |  |  |  |  |  |  | weed control effect (activity level, fresh weight growth inhibition rate), Amaranthus retroflexus (Amaranthus retroflexus; 3000 g/ha): 10 (Level 10: completely dead); weed control effect (activity level, fresh weight growth inhibition rate), Chenopodiaceae (Chenopodiaceae; 3000 g/ha): 10 (Level 10: completely dead); weed control effect (activity level, fresh weight growth inhibition rate), Rorippa indica (Rorippa indica; 3000 g/ha): 10 (Level 10: completely dead); weed control effect (activity level, fresh weight growth inhibition rate), Veronica polita (Veronica polita; 3000 g/ha): 10 (Level 10: completely dead) |
| Cc1cnn(C)c1-c1nnc(Cl)cc1O [Compound 80] |  |  |  |  |  |  |  |  |  | weed control effect (activity level, fresh weight growth inhibition rate), Amaranthus retroflexus (Amaranthus retroflexus; 3000 g/ha): 10 (Level 10: completely dead); weed control effect (activity level, fresh weight growth inhibition rate), Chenopodiaceae (Chenopodiaceae; 3000 g/ha): 10 (Level 10: completely dead); weed control effect (activity level, fresh weight growth inhibition rate), Rorippa indica (Rorippa indica; 3000 g/ha): 10 (Level 10: completely dead); weed control effect (activity level, fresh weight growth inhibition rate), Veronica polita (Veronica polita; 3000 g/ha): 10 (Level 10: completely dead) |
